Measured values taken from patent US20180251431A1 (VERTEX PHARMACEUTICALS INCORPORATED, priority 2016, published 2018).

tested on: HEK293 cells; experiment: HEK293 VLCFA-LPC IC50 determination (13C-labeled C26:0 LPC by UHPLC/MS); assay type: cell-based, human; details: Homo sapiens, HEK293, 48 h, average of one or more replicates; 13C-labeled C26:0 LPC, 48 hours; read-out: Average HEK293 IC50
Protocol: HEK293 cells were treated with compounds, such as those listed in Tables A-E of Example 1, using the representative manual protocols described below. The protocols below were also adapted to a semi-automated protocol using standard methods in the art.
Cell Culture Growth Conditions:
HEK293 cells were maintained in FreeStyle F17 media (Gibco # A13835) supplemented with PenStrep (1%, Gibco #15070-063), Glutamax (2%, Gibco #35050-061), and Pluronic (0.1%, Gibco #24040-032) (“supplemented media”). Suspension cultures were grown in disposable Erlenmeyer flasks at about 120 rpm, 37° C., 5% CO2, and 80% humidity. Cell densities were kept between about 0.5 and 3 million cells per mL, in about 50-200 mL per flask.
Treatment of Cells with Compounds Provided Herein:
The cells were treated with compounds using either a total of 900 uL cell media volume (high-volume assay) or a total of 200 uL cell media volume (low-volume assay). In the high volume assay, 450 μL of supplemented media plus 13C-acetate (1.0 mg/mL, Sigma Aldrich #282014) were added to 0.5 μL of a compound (such as those in Tables A-E) in DMSO in a polypropylene v-bottom plate (Costar #3363) in 1 of 3 dilution schemes. The contents of each well were mixed and transferred to a sterile polypropylene deep-well v-bottom plate (Costar #3960). 450 μL of cultured HEK293 cells in supplemented media at a density of 1.0 million cells/mL was added to each well. In the low volume assay, 100 μL of supplemented media plus 13C-acetate (1.0 mg/mL, Sigma Aldrich #282014) were added to either 0.1 μL or 1.0 uL of a compound (such as those in Tables A-E) in DMSO in a polypropylene v-bottom plate (Costar #3363) in 1 of 3 dilution schemes. 100 μL of cultured HEK293 cells in supplemented media at a density of 1.0 million cells/mL was added to each well. The high volume and low volume plates were sealed with either AirPore Tape Sheets (Qiagen #19571) or Duetz plate covers to control evaporation and placed into a shaking incubator at 225 rpm, 37° C., 5% CO2, and 80% humidity for 48 hours. For both the high and low volume assays the 3 dilution schemes used were as follows:
Following incubation, treated cells were harvested by centrifugation at 1690×g for 10 minutes. In the high volume assay 200 uL treated cells were transferred to a polypropylene v-bottom plate (Costar #3363) prior to centrifugation. In the low volume assay the incubation plate was centrifuged directly, without a transfer step. The supernatant was then discarded and the analytes were extracted using 1 of 2 different extraction schemes. In the first scheme, the cell pellet was visibly broken up by mixing the cell pellet up and down in 100 μL of hexane/isopropanol (60:40) 20 times. The resulting mixture was transferred to a 0.45 μm Durapore membrane (Millipore #MSH VN4510) atop a polypropylene v-bottom plate (Costar #3363) and filtered by centrifugation at 1690×g for 5 minutes. 120 μL of n-butanol containing 10 nM C13:0 lysophosphatidylcholine was added to the filtrate as an injection control standard, then the entire volume was transferred to a new Durapore membrane/v-bottom plate. In the second scheme, the cell pellet was visibly broken up by mixing the cell pellet up and down in 180 μL of methanol containing 10 nM C13:0 lysophosphatidylcholine 20 times. The resulting mixture was transferred to a 0.45 μm Durapore membrane (Millipore #MSH VN4510) atop a polypropylene v-bottom plate and filtered by centrifugation at 1690×g for 5 minutes. In both schemes, the plates were then sealed with pierceable capmats (Micronic MP53017) and stored at −20 OC until analyzed.
UHPLC/Mass Spectrometry Readout:
The filtered organic extraction was analyzed with a 1290 Agilent Infinity Series UHPLC coupled to an ABI Sciex QTrap 6500 mass spectrometer. […]

| SMILES | IC50 [nM] |
| --- | --- |
| O=C(Nc1ccn(-c2ccccc2)n1)C1(c2ccccc2)CC1(F)F (single isomer, unassigned) [Compound 366] | 210 |
| O=C(Nc1ccn(-c2ccnc(F)c2)n1)C1(c2ccccc2)CC1(F)F (single isomer, unassigned) [Compound 368] | 32 |
| O=C(Nc1ccn(-c2ccnc(F)c2)n1)C1(c2ccccc2)CC1(Cl)Cl (single isomer, unassigned) [Compound 370] | 170 |
| O=C(Nc1ccn(-c2ccnc(F)c2)n1)C1(c2ccccc2)CC1(Cl)Cl (single isomer, unassigned) [Compound 371] | 720 |
| O=C(Nc1ccn(-c2ccncc2)n1)C1(c2ccccc2)CC1(F)F (single isomer, unassigned) [Compound 433] | 320 |
| O=C(Nc1ccn(-c2cncc(F)c2)n1)[C@]1(c2ncccc2F)CC12CC2 (single isomer, unassigned) [Compound 499] | 740 |
| O=C(Nc1ccn(-c2cncc(F)c2)n1)[C@@]1(c2ncccc2F)CC12CC2 (single isomer, unassigned) [Compound 500] | 430 |

same assay, conditions: Homo sapiens, HEK293, HEK293 cells; average of one or more replicates; read-out: Average HEK293 IC50

| SMILES | IC50 [nM] |
| --- | --- |
| O=C(Nc1ccn(-c2ccccc2)n1)C1(c2ccccc2)CC1(F)F (racemic) [Compound 143, 2,2-difluoro-1-phenyl-N-(1-phenyl-1H-pyrazol-3-yl)cyclopropane-1-carboxamide] | 140 |
| O=C(Nc1ccn(-c2ccncc2)n1)C1(c2ccccc2)CC1(F)F (racemic) [Compound 419, 2,2-difluoro-1-phenyl-N-(1-(pyridin-4-yl)-1H-pyrazol-3-yl)cyclopropane-1-carboxamide] | 240 |
| O=C(Nc1ccn(-c2cncc(F)c2)n1)C1(c2ccccc2)CC1(F)F (racemic) [Compound 420, 2,2-difluoro-N-(1-(5-fluoropyridin-3-yl)-1H-pyrazol-3-yl)-1-phenylcyclopropane-1-carboxamide] | 100 |
| O=C(Nc1ccn(-c2cccc(Cl)c2)n1)C1(c2ccccc2)CC1(F)F (racemic) [Compound 421, N-(1-(3-chlorophenyl)-1H-pyrazol-3-yl)-2,2-difluoro-1-phenylcyclopropane-1-carboxamide] | 470 |
| O=C(Nc1ccn(-c2cncc(F)c2)n1)C1(c2ncccc2F)CC12CC2 (racemic) [Compound 473, 1-(3-fluoropyridin-2-yl)-N-(1-(5-fluoropyridin-3-yl)-1H-pyrazol-3-yl)spiro[2.2]pentane-1-carboxamide] | 430 |
| O=C(Cc1ccccc1F)Nc1ccn(-c2ccccc2)n1 [Compound 1, 2-(2-fluorophenyl)-N-(1-phenylpyrazol-3-yl)acetamide] | 68 |

same assay, conditions: Homo sapiens, HEK293, read-out: Average HEK293 IC50

| SMILES | IC50 [nM] |
| --- | --- |
| O=C(Nc1ccn(-c2ccnc(F)c2)n1)C1(c2ccccc2)CC1(F)F (racemic) [Compound 169, 2,2-difluoro-N-(1-(2-fluoropyridin-4-yl)-1H-pyrazol-3-yl)-1-phenylcyclopropane-1-carboxamide] | 52 |

same assay, conditions: average of one or more replicates; 13C-labeled C26:0 LPC, 48 hours; read-out: Average HEK293 IC50

| SMILES | IC50 [nM] |
| --- | --- |
| O=C(Nc1ccn(-c2ccccc2)n1)C1(c2ccccc2)CC1(F)F (single isomer, unassigned) [Compound 367] | 110 |
| O=C(Nc1ccn(-c2ccnc(F)c2)n1)C1(c2ccccc2)CC1(F)F (single isomer, unassigned) [Compound 369] | 36 |
| O=C(Nc1ccn(-c2ccncc2)n1)C1(c2ccccc2)CC1(F)F (single isomer, unassigned) [Compound 434] | 340 |
| O=C(Nc1ccn(-c2cncc(F)c2)n1)C1(c2ccccc2)CC1(F)F (single isomer, unassigned) [Compound 435] | 60 |
| O=C(Nc1ccn(-c2cncc(F)c2)n1)C1(c2ccccc2)CC1(F)F (single isomer, unassigned) [Compound 436] | 180 |
| O=C(Nc1ccn(-c2cccc(Cl)c2)n1)C1(c2ccccc2)CC1(F)F (single isomer, unassigned) [Compound 437] | 2400 |
| O=C(Nc1ccn(-c2cccc(Cl)c2)n1)C1(c2ccccc2)CC1(F)F (single isomer, unassigned) [Compound 438] | 540 |
